Measured values published in patent US20240190883A1, “KRAS PROTEIN DEGRADERS, PHARMACEUTICAL COMPOSITIONS THEREOF, AND THEIR THERAPEUTIC APPLICATIONS” (BioTheryX, Inc., priority 2021, published 2024).

Experiments:
Format in all cases: cell-based
Lovo (G13D) cells = assay: Cell viability assay (CELLTITER-GLO), Lovo cells; settings: Homo sapiens, 72 h, 3 days incubation, 2.5% fetal bovine serum, read-out: Inhibition of Cancerous Cells IC50 (μM) Lovo (G13D)
Description: (§1) H358, H23, SW48, and AsPC-1 cells were cultured in RPMI 1640 media supplemented with 10% fetal bovine serum, streptomycin, and penicillin. Lovo and SW480 cells were cultured in DMEM media supplemented with 10% fetal bovine serum, streptomycin, and penicillin. The cell lines were plated in their respective medium supplemented with 2.5% fetal bovine serum, streptomycin, and penicillin. All cell lines were plated in white walled 96-well plates at 2,000 cells/well or 384-well plates at 500 cells/well, except Lovo, which were plated at 4,000 or 1,000 cells/well, respectively. The cells were incubated in DMSO (control) or a compound for 3 days at 37° C. under 5% C02. A CELLTITER-GLO® reagent (100 μL) was then added to each well. After a 10 min incubation with shaking, luminescence was measured using an ENVISION® multimode plate reader. IC50 values are summarized in Table 1 and percentages of inhibition are summarized in Table 2, where compound T1 is 2-(4-(2-methyl-3,5-diphenylpyrazolo[1,5-a]pyrimidin-7-yl)piperazin-1-yl)ethan-1-ol.

SW480 (G12V) cells = assay: Cell viability assay (CELLTITER-GLO), SW480 cells; settings: Homo sapiens, 72 h, 3 days incubation, 2.5% fetal bovine serum, read-out: Inhibition of Cancerous Cells IC50 (μM) SW480 (G12V)
Description: as §1

SW48 (wt) cells = assay: Cell viability assay (CELLTITER-GLO), SW48 cells; settings: Homo sapiens, 72 h, 3 days incubation, 2.5% fetal bovine serum, read-out: Inhibition of Cancerous Cells IC50 (μM) SW48 (wt)
Description: as §1

H358 (G12C) cells = assay: Cell viability assay (CELLTITER-GLO), H358 cells; settings: Homo sapiens, NCI-H358, 72 h, 3 days incubation, 2.5% fetal bovine serum, read-out: Inhibition of Cancerous Cells IC50 (μM) H358 (G12C)
Description: as §1

AsPC-1 (G12D) cells = assay: Cell viability assay (CELLTITER-GLO), AsPC-1 cells; settings: Homo sapiens, ASPC1, 72 h, 3 days incubation, 2.5% fetal bovine serum, read-out: Inhibition of Cancerous Cells IC50 (μM) AsPC-1 (G12D)
Description: as §1

SMILES | IC50 (Lovo (G13D) cells) [µM] | IC50 (SW480 (G12V) cells) [µM] | IC50 (SW48 (wt) cells) [µM] | IC50 (H358 (G12C) cells) [µM] | IC50 (AsPC-1 (G12D) cells) [µM]
Cc1nn2c(N3CCN(CCO)CC3)cc(-c3cccc(CCCCCN4CCN(C(=O)CNc5ccc(C6CCC(=O)NC6=O)cc5)CC4)c3)nc2c1-c1ccccc1 (stereo not shown) [Compound B2, 3-(4-((2-(4-(5-(3-(7-(4-(2-hydroxyethyl)piperazin-1-yl)-2-methyl-3-phenylpyrazolo[1,5-a]pyrimidin-5-yl)phenyl)pentyl)piperazin-1-yl)-2-oxoethyl)amino)phenyl)piperidine-2,6-dione] | 0.4 | 0.39 | 0.49 | 0.71 | 
Cc1nn2c(N3CCN(CCO)CC3)cc(-c3ccccc3)nc2c1-c1cccc(CCCCCN2CCN(C(=O)COc3ccc(N4CCC(=O)NC4=O)cc3)CC2)c1 [Compound C7, 1-(4-(2-(4-(5-(3-(7-(4-(2-hydroxyethyl)piperazin-1-yl)-2-methyl-5-phenyl-pyrazolo[1,5-a]pyrimidin-3-yl)phenyl)pentyl)piperazin-1-yl)-2-oxoethoxy)phenyl)dihydro-pyrimidine-2,4(1H,3H)-dione] | 0.73 | 0.45 | 0.7 | 1.1 | 0.91
Cc1nn2c(N3CCN(CCO)CC3)cc(-c3ccccc3)nc2c1-c1cccc(CCCCCCCN2CCN(C(=O)COc3ccc(N4CCC(=O)NC4=O)cc3)CC2)c1 [Compound C8, 1-(4-(2-(4-(7-(3-(7-(4-(2-Hydroxyethyl)piperazin-1-yl)-2-methyl-5-phenyl-pyrazolo[1,5-a]pyrimidin-3-yl)phenyl)heptyl)piperazin-1-yl)-2-oxoethoxy)phenyl)dihydro-pyrimidine-2,4(1H,3H)-dione] | 0.71 | 0.42 | 0.66 | 1.1 | 1.1
Cc1nn2c(N3CCN(CCO)CC3)cc(-c3ccccc3)nc2c1-c1cccc(CCCCCCCN2CCN(C(=O)COc3cccc(N4CCC(=O)NC4=O)c3)CC2)c1 [Compound C11, 1-(3-(2-(4-(7-(3-(7-(4-(2-Hydroxyethyl)piperazin-1-yl)-2-methyl-5-phenyl-pyrazolo[1,5-a]pyrindin-3-yl)phenyl)heptyl)piperazin-1-yl)-2-oxoethoxy)phenyl)dihydro-pyrimidine-2,4(1H,3H)-dione] | 0.89 | 0.53 | 1.1 | 1.2 | 1.2
Cc1nn2c(N3CCN(CCO)CC3)cc(-c3ccccc3)nc2c1-c1cccc(CCCCCCCCCN2CCN(C(=O)COc3cccc(N4CCC(=O)NC4=O)c3)CC2)c1 [Compound C12, 1-(3-(2-(4-(9-(3-(7-(4-(2-hydroxyethyl)piperazin-1-yl)-2-methyl-5-phenyl-pyrazolo[1,5-a]pyrimidin-3-yl)phenyl)nonyl)piperazin-1-yl)-2-oxoethoxy)phenyl)dihydro-pyrimidine-2,4(1H,3H)-dione] | 0.63 | 0.45 | 0.73 | 1.4 | 1
Cc1nn2c(N3CCN(CCO)CC3)cc(-c3cccc(CCCN4CCN(C(=O)CNc5cccc(C6CCC(=O)NC6=O)c5)CC4)c3)nc2c1-c1ccccc1 (stereo not shown) [Compound B4, 3-(3-((2-(4-(3-(3-(7-(4-(2-Hydroxyethyl)piperazin-1-yl)-2-methyl-3-phenyl-pyrazolo[1,5-a]pyrimidin-5-yl)phenyl)propyl)piperazin-1-yl)-2-oxoethyl)amino)phenyl)-piperidine-2,6-dione] | 1.1 | 1.3 | 1.4 | 1.1 | 
Cc1nn2c(N3CCN(CCO)CC3)cc(-c3cccc(CCCN4CCN(C(=O)CNc5ccc(C6CCC(=O)NC6=O)cc5)CC4)c3)nc2c1-c1ccccc1 (stereo not shown) [Compound B1, 3-(4-((2-(4-(3-(3-(7-(4-(2-Hydroxyethyl)piperazin-1-yl)-2-methyl-3-phenyl-pyrazolo[1,5-a]pyrimidin-5-yl)phenyl)propyl)piperazin-1-yl)-2-oxoethyl)amino)phenyl)-piperidine-2,6-dione] | 0.74 | 1.2 | 1.1 | 0.94 | 

The remaining lines, values ahead:

IC50 (Lovo (G13D) cells) [µM] | IC50 (SW480 (G12V) cells) [µM] | IC50 (SW48 (wt) cells) [µM] | IC50 (H358 (G12C) cells) [µM] | IC50 (AsPC-1 (G12D) cells) [µM] | SMILES
0.87 | 0.63 | 1.3 | 2.4 | 1.4 | Cc1nn2c(N3CCN(CCO)CC3)cc(-c3ccccc3)nc2c1-c1cccc(CCCN2CCN(C(=O)CNc3cccc4c(C5CCC(=O)NC5=O)nn(C)c34)CC2)c1 (stereo not shown) [Compound D10, 3-(7-((2-(4-(3-(3-(7-(4-(2-Hydroxyethyl)piperazin-1-yl)-2-methyl-5-phenyl-pyrazolo[1,5-a]pyrimidin-3-yl)phenyl)propyl)piperazin-1-yl)-2-oxoethyl)amino)-1-methyl-1H-indazol-3-yl)piperidine-2,6-dione]
0.73 | 0.48 | 0.84 | 1.2 | 1.4 | Cc1nn2c(N3CCN(CCO)CC3)cc(-c3ccccc3)nc2c1-c1cccc(CCCCCN2CCN(C(=O)CNc3cccc4c(C5CCC(=O)NC5=O)nn(C)c34)CC2)c1 (stereo not shown) [Compound D11, 3-(7-((2-(4-(5-(3-(7-(4-(2-Hydroxyethyl)piperazin-1-yl)-2-methyl-5-phenyl-pyrazolo[1,5-a]pyrimidin-3-yl)phenyl)pentyl)piperazin-1-yl)-2-oxoethyl)amino)-1-methyl-1H-indazol-3-yl)piperidine-2,6-dione]
0.92 | 0.47 | 0.96 | 1.2 | 1.4 | Cc1nn2c(N3CCN(CCO)CC3)cc(-c3ccccc3)nc2c1-c1cccc(CCCCCCCN2CCN(C(=O)CNc3cccc4c(C5CCC(=O)NC5=O)nn(C)c34)CC2)c1 (stereo not shown) [Compound D12, 3-(7-((2-(4-(7-(3-(7-(4-(2-Hydroxyethyl)piperazin-1-yl)-2-methyl-5-phenyl-pyrazolo[1,5-a]pyrimidin-3-yl)phenyl)heptyl)piperazin-1-yl)-2-oxoethyl)amino)-1-methyl-1H-indazol-3-yl)piperidine-2,6-dione]
0.52 | 0.84 | 0.94 | 0.75 |  | Cc1nn2c(N3CCN(CCO)CC3)cc(-c3cccc(CCCN4CCN(C(=O)CNc5cccc6c(C7CCC(=O)NC7=O)nn(C)c56)CC4)c3)nc2c1-c1ccccc1 (stereo not shown) [Compound D4, 3-(7-((2-(4-(3-(3-(7-(4-(2-Hydroxyethyl)piperazin-1-yl)-2-methyl-3-phenyl-pyrazolo[1,5-a]pyrimidin-5-yl)phenyl)propyl)piperazin-1-yl)-2-oxoethyl)amino)-1-methyl-1H-indazol-3-yl)piperidine-2,6-dione]
0.32 | 0.45 | 0.52 | 0.82 |  | Cc1nn2c(N3CCN(CCO)CC3)cc(-c3cccc(CCCCCN4CCN(C(=O)CNc5ccc6c(C7CCC(=O)NC7=O)nn(C)c6c5)CC4)c3)nc2c1-c1ccccc1 (stereo not shown) [Compound D2, 3-(6-((2-(4-(5-(3-(7-(4-(2-hydroxyethyl)piperazin-1-yl)-2-methyl-3-phenylpyrazolo[1,5-a]pyrimidin-5-yl)phenyl)pentyl)piperazin-1-yl)-2-oxoethyl)amino)-1-methyl-1H-indazol-3-yl)piperidine-2,6-dione]
